Reference: patent publication US4335112A, “Method of treating mites in poultry” (priority 1981, dated 1982)
Where a SMILES comes first, the peptide text is derived from it. Bridges are numbered along the chain shown (N, C = ends). [ ]: non-standard residue; d: D form. The star is where a group is joined. Ileψ(thiazoline)Cys = CC[C@H](C)[C@H](N)C1=N[C@H](C(=O)*)CS1; dOrn = NCCC[C@@H](N)C(=O)O

Columns and labels:
mites [1] = experiment: Control and elimination of mites in poultry flocks by bacitracin feed supplement (general finding); type: in vivo
From the text: This unique use is for the control and elimination of mites in poultry flocks.

mites [2] = experiment: Treatment of mite-infested chicken flock with zinc bacitracin in the feed; type: in vivo
From the text: The following example is offered to illustrate the manner in which the zinc bacitracin is used and the efficiency which it has realized. A flock of 10,000 Babcock chickens of an approximate age of 9-10 months, weighing approximately 3 pounds became heavily infested with mites. […] Ten months later the same flock again became mite infested.

Compound | toxicity to mites (mites [1]; applicant's discovery, no details) | elimination of mites from infested poultry flock (mites [1]; between 100 and 200 grams of bacitracin per ton of poultry grain for several days) | disappearance of mites from infested flock (mites [2]; flock of 10,000 Babcock chickens, 9-10 months old, heavily infested, 100 grams per ton in normal feed for seven days) | effect of same treatment on re-infestation (mites [2]; same flock again mite infested ten months later, same treatment (100 grams per ton feed, seven days))
CC[C@H](C)[C@H](N)C1=N[C@H](C(=O)N[C@@H](CC(C)C)C(=O)N[C@H](CCC(=O)O)C(=O)N[C@H](C(=O)N[C@H]2CCCCNC(=O)[C@H](CC(N)=O)NC(=O)[C@@H](CC(=O)O)NC(=O)[C@H](Cc3cnc[nH]3)NC(=O)[C@@H](Cc3ccccc3)NC(=O)[C@H]([C@@H](C)CC)NC(=O)[C@@H](CCCN)NC2=O)[C@@H](C)CC)CS1 [bacitracin] ({Ileψ(thiazoline)Cys}-L[dE]IK[dOrn]I[dF]H[dD]N; lactam 4-C) | toxic to mites | substantially eliminate mites | – | –
zinc bacitracin | – | – | substantially all of the mites had disappeared | same effective results
